Test results: patent US11753407B2, “Compounds for treating spinal muscular atrophy” (PTC Therapeutics, Inc., priority 2012, dated 2023)

Legend:
[1] = test system: SMN2 minigene mRNA (SMN2-A minigene) in HEK293H cells; test: SMN2 minigene mRNA splicing RT-qPCR assay in cultured cells; format: cell-based, human; settings: Homo sapiens, HEK293-H; concentration increasing full length SMN2 mRNA 1.5-fold relative to vehicle-treated cells; HEK293H cells with SMN2-A minigene, 24 hours, 7-point concentration data; read-out: EC1.5x for production of full length SMN2 mRNA
How it was run: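 Stable SMN2-A minigene HEK293H; cpd 7-pt 3.16-fold series, 200× in DMSO, 24 h, 37 °C, n=2. Lysates → multiplex RT-qPCR (minigene FL + GAPDH), efficiency-corrected ΔΔCt vs vehicle. EC1.5× = 1.5-fold FL mRNA gain.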

[2] = test system: Smn protein in SMA patient fibroblast cells (GM03813); test: Smn protein assay in cultured cells (SMN HTRF); format: cell-based, human; settings: SMA patient fibroblast cells, 48 hours; for EC1.5x for Smn protein expression: 7-point concentration curve, SMN HTRF, concentration producing 1.5 times Smn protein vs DMSO vehicle control; for maximum fold (Fold) increase of Smn protein: 7-point concentration data, fold relative to vehicle control
How it was run: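 Fibroblasts, SMA patient; 5,000 cells/well; 7-pt curve, 3.16-fold serial dilution; 48 h, 37 °C, 5% CO2; RIPA lysis 1 h RT; anti-SMN d2 + kryptate overnight RT; HTRF 665/620 nm; fold vs DMSO; EC1.5×, max fold.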

In the case of `COc1ccc(-c2cc(=O)n3cc(N4CCN[C@@H](C)C4)cc(C)c3n2)cc1F` [Compound 327, 2-(3-fluoro-4-methoxyphenyl)-9-methyl-7-[(3S)-3-methylpiperazin-1-yl]-4H-pyrido[1,2-a]pyrimidin-4-one], the EC (1.5-fold increase) [1] is reported as less than 0.1 µM, the “EC1.5x for Smn protein expression” value [2] is reported as “**** (an EC1.5x≤0.3 μM is indicated by four stars (****))” and the “maximum fold (Fold) increase of Smn protein” value (“maximum fold (Fold) increase” for short) [2] is reported as “**** (a fold increase between >1.5 and ≤1.65 is indicated by four stars (****))”. The melting point was 198 to 202 °C.

For `COc1ccc(-c2cc(=O)n3cc(N4CCC(N(C)C)CC4)cc(C)c3n2)cc1F` [Compound 328, 7-[4-(dimethylamino)piperidin-1-yl]-2-(3-fluoro-4-methoxyphenyl)-9-methyl-4H-pyrido[1,2-a]pyrimidin-4-one], the EC (1.5-fold increase) [1] was less than 0.1 µM, the “maximum fold (Fold) increase” value [2] was “*** (a fold increase between >1.35 and ≤1.5 is indicated by three stars (***))” and the melting point was 141 to 145 °C.

For `COc1ccc(-c2cc(=O)n3cc(C4CCN(C)CC4)cc(C)c3n2)cc1F` [Compound 329, 2-(3-fluoro-4-methoxyphenyl)-9-methyl-7-(1-methylpiperidin-4-yl)-4H-pyrido[1,2-a]pyrimidin-4-one], the EC (1.5-fold increase) [1] was less than 0.1 µM, the “EC1.5x for Smn protein expression” value [2] was “** (an EC1.5× between >1 μM and ≤3 μM is indicated by two stars (**))” and the “maximum fold (Fold) increase” value [2] was “**** (a fold increase between >1.5 and ≤1.65 is indicated by four stars (****))”. It also gave a melting point of 198 to 203 °C.

In the case of `COc1ccc(-c2cc(=O)n3cc(N4CCC(NC5CC5)CC4)cc(C)c3n2)cc1OC` [Compound 330, 7-[4-(cyclopropylamino)piperidin-1-yl]-2-(3,4-dimethoxyphenyl)-9-methyl-4H-pyrido[1,2-a]pyrimidin-4-one], the EC (1.5-fold increase) [1] is reported as 0.1 to 0.3 µM, the “maximum fold (Fold) increase” value [2] is reported as “** (a fold increase between >1.2 and ≤1.35 is indicated by two stars (**))” and the melting point is reported as 141 °C.

In the case of `Cc1cn2cc(-c3cc(=O)n4cc(N5CCN(C)[C@@H](C)C5)ccc4n3)cc(Cl)c2n1` [Compound 331, 2-(8-chloro-2-methylimidazo[1,2-a]pyridin-6-yl)-7-[(3S)-3,4-dimethylpiperazin-1-yl]-4H-pyrido[1,2-a]pyrimidin-4-one], the EC (1.5-fold increase) [1] is reported as less than 0.1 µM, the “EC1.5x for Smn protein expression” value [2] is reported as “**** (an EC1.5x≤0.3 μM is indicated by four stars (****))” and the “maximum fold (Fold) increase” value [2] is reported as “***** (a fold increase >1.65 is indicated by five stars (*****))”. For the same compound, the melting point was 258 to 262 °C.

For `COc1ccc(-c2cc(=O)n3cc(N4C[C@@H](C)N[C@@H](C)C4)cc(C)c3n2)cc1OC` [Compound 332, 2-(3,4-dimethoxyphenyl)-7-[(3R,5S)-3,5-dimethylpiperazin-1-yl]-9-methyl-4H-pyrido[1,2-a]pyrimidin-4-one], the EC (1.5-fold increase) [1] was 0.3 to 1 µM, the “maximum fold (Fold) increase” value [2] was “* (A maximum fold increase of ≤1.2 is indicated by one star (*))” and the melting point was 225 to 233 °C.

For `COc1ccc(-c2cc(=O)n3cc(N4CCN(C)[C@H](C)C4)cc(C)c3n2)cc1OC` [Compound 333, 2-(3,4-dimethoxyphenyl)-7-[(3R)-3,4-dimethylpiperazin-1-yl]-9-methyl-4H-pyrido[1,2-a]pyrimidin-4-one], the EC (1.5-fold increase) [1] was 0.1 to 0.3 µM, the “EC1.5x for Smn protein expression” value [2] was “** (an EC1.5× between >1 μM and ≤3 μM is indicated by two stars (**))” and the “maximum fold (Fold) increase” value [2] was “**** (a fold increase between >1.5 and ≤1.65 is indicated by four stars (****))”. For the same compound, the melting point was 148 °C.

With `Cc1cn2nc(-c3cc(=O)n4cc(N5CCCN(C)CC5)ccc4n3)cc2c(C)n1` [Compound 334, 2-(4,6-dimethylpyrazolo[1,5-a]pyrazin-2-yl)-7-(4-methyl-1,4-diazepan-1-yl)-4H-pyrido[1,2-a]pyrimidin-4-one] the EC (1.5-fold increase) [1] was less than 0.1 µM, the “EC1.5x for Smn protein expression” value [2] was “**** (an EC1.5x≤0.3 μM is indicated by four stars (****))” and the “maximum fold (Fold) increase” value [2] was “***** (a fold increase >1.65 is indicated by five stars (*****))”. The melting point was 169 to 171 °C.

In the case of `Cc1cn2nc(-c3cc(=O)n4cc(N5CCN6CCC[C@H]6C5)ccc4n3)cc2c(C)n1` [Compound 336, 2-(4,6-dimethylpyrazolo[1,5-a]pyrazin-2-yl)-7-[(8aS)-hexahydropyrrolo[1,2-a]pyrazin-2(1H)-yl]-4H-pyrido[1,2-a]pyrimidin-4-one], the EC (1.5-fold increase) [1] is reported as 0.1 to 0.3 µM, the “EC1.5x for Smn protein expression” value [2] is reported as “**** (an EC1.5x≤0.3 μM is indicated by four stars (****))” and the “maximum fold (Fold) increase” value [2] is reported as “***** (a fold increase >1.65 is indicated by five stars (*****))”. For the same compound, the melting point was 215 to 218 °C.

For `Cc1cn2nc(-c3cc(=O)n4cc(N5CCN6CCC[C@@H]6C5)ccc4n3)cc2c(C)n1` [Compound 337, 2-(4,6-dimethylpyrazolo[1,5-a]pyrazin-2-yl)-7-[(8aR)-hexahydropyrrolo[1,2-a]pyrazin-2(1H)-yl]-4H-pyrido[1,2-a]pyrimidin-4-one], the EC (1.5-fold increase) [1] was less than 0.1 µM, the “EC1.5x for Smn protein expression” value [2] was “**** (an EC1.5x≤0.3 μM is indicated by four stars (****))” and the “maximum fold (Fold) increase” value [2] was “***** (a fold increase >1.65 is indicated by five stars (*****))”. It also gave a melting point of 228 to 230 °C.

For `CCN1CCN(c2ccc3nc(-c4cc5c(C)nc(C)cn5n4)cc(=O)n3c2)CC1` [Compound 338, 2-(4,6-dimethylpyrazolo[1,5-a]pyrazin-2-yl)-7-(4-ethylpiperazin-1-yl)-4H-pyrido[1,2-a]pyrimidin-4-one], the EC (1.5-fold increase) [1] was less than 0.1 µM, the “EC1.5x for Smn protein expression” value [2] was “**** (an EC1.5x≤0.3 μM is indicated by four stars (****))” and the “maximum fold (Fold) increase” value [2] was “***** (a fold increase >1.65 is indicated by five stars (*****))”. The melting point was 251 to 253 °C.

With `Cc1cn2nc(-c3cc(=O)n4cc(N5CCC(N(C)C)CC5)ccc4n3)cc2c(C)n1` [Compound 339, 7-[4-(dimethylamino)piperidin-1-yl]-2-(4,6-dimethylpyrazolo[1,5-a]pyrazin-2-yl)-4H-pyrido[1,2-a]pyrimidin-4-one] the EC (1.5-fold increase) [1] was less than 0.1 µM, the “EC1.5x for Smn protein expression” value [2] was “**** (an EC1.5x≤0.3 μM is indicated by four stars (****))” and the “maximum fold (Fold) increase” value [2] was “***** (a fold increase >1.65 is indicated by five stars (*****))”. The melting point was 208 to 210 °C.

For `Cc1cn2nc(-c3cc(=O)n4cc(N5CCNC(C)(C)C5)ccc4n3)cc2c(C)n1` [Compound 340, 7-(3,3-dimethylpiperazin-1-yl)-2-(4,6-dimethylpyrazolo[1,5-a]pyrazin-2-yl)-4H-pyrido[1,2-a]pyrimidin-4-one], the EC (1.5-fold increase) [1] was less than 0.1 µM, the “EC1.5x for Smn protein expression” value [2] was “**** (an EC1.5x≤0.3 μM is indicated by four stars (****))” and the “maximum fold (Fold) increase” value [2] was “***** (a fold increase >1.65 is indicated by five stars (*****))”. The melting point was 195 to 197 °C.

In the case of `Cc1cn2nc(-c3cc(=O)n4cc(N5CCN(C6CC6)CC5)ccc4n3)cc2c(C)n1` [Compound 341, 7-(4-cyclopropylpiperazin-1-yl)-2-(4,6-dimethylpyrazolo[1,5-a]pyrazin-2-yl)-4H-pyrido[1,2-a]pyrimidin-4-one], the EC (1.5-fold increase) [1] is reported as 0.3 to 1 µM, the “EC1.5x for Smn protein expression” value [2] is reported as “*** (an EC1.5× between >0.3 μM and ≤1 μM is indicated by three stars (***))” and the “maximum fold (Fold) increase” value [2] is reported as “***** (a fold increase >1.65 is indicated by five stars (*****))”. The melting point was 189 to 192 °C.

With `COc1ccc(-c2cc(=O)n3cc(N4CCN(C)CC4)cc(C)c3n2)cc1OC` [Compound 344, 2-(3,4-dimethoxyphenyl)-9-methyl-7-(4-methylpiperazin-1-yl)-4H-pyrido[1,2-a]pyrimidin-4-one] the EC (1.5-fold increase) [1] was 0.1 to 0.3 µM, the “EC1.5x for Smn protein expression” value [2] was “*** (an EC1.5× between >0.3 μM and ≤1 μM is indicated by three stars (***))” and the “maximum fold (Fold) increase” value [2] was “***** (a fold increase >1.65 is indicated by five stars (*****))”. For the same compound, the melting point was 191 to 198 °C.

With `CCc1cc(N2CCC(N(C)C)CC2)cn2c(=O)cc(-c3ccc(OC)c(OC)c3)nc12` [Compound 345, 2-(3,4-dimethoxyphenyl)-7-[4-(dimethylamino)piperidin-1-yl]-9-ethyl-4H-pyrido[1,2-a]pyrimidin-4-one] the EC (1.5-fold increase) [1] was less than 0.1 µM, the “maximum fold (Fold) increase” value [2] was “*** (a fold increase between >1.35 and ≤1.5 is indicated by three stars (***))” and the melting point was 146 to 150 °C.

With `COc1ccc(-c2cc(=O)n3cc(C4=CCN(CCO)CC4)cc(C)c3n2)cc1OC` [Compound 346, 2-(3,4-dimethoxyphenyl)-7-[1-(2-hydroxyethyl)-1,2,3,6-tetrahydropyridin-4-yl]-9-methyl-4H-pyrido[1,2-a]pyrimidin-4-one] the EC (1.5-fold increase) [1] was less than 0.1 µM, the “EC1.5x for Smn protein expression” value [2] was “**** (an EC1.5x≤0.3 μM is indicated by four stars (****))” and the “maximum fold (Fold) increase” value [2] was “**** (a fold increase between >1.5 and ≤1.65 is indicated by four stars (****))”. The melting point was 169 to 179 °C.

In the case of `Cc1nc2cc(-c3cc(=O)n4cc(N5CCC(N(C)C)CC5)ccc4n3)ccc2s1` [Compound 347, 7-[4-(dimethylamino)piperidin-1-yl]-2-(2-methyl-1,3-benzothiazol-5-yl)-4H-pyrido[1,2-a]pyrimidin-4-one], the EC (1.5-fold increase) [1] is reported as less than 0.1 µM, the “maximum fold (Fold) increase” value [2] is reported as “*** (a fold increase between >1.35 and ≤1.5 is indicated by three stars (***))” and the melting point is reported as 218 to 220 °C.
